Laboratory results published in patent US20260053767A1, “Hepatoprotective Compositions And Methods” (Jemyll, Ltd., priority 2022, published 2026).

What was measured:
[1] = tested on: endothelial cells (EOMA cells); experiment: DNA damage in endothelial cells after oxidative insult by H2O2; format: cell-based; conditions: 6 hours, p-value >0.100
Description: To that end, the inventors used endothelial cells (EOMA cells) and liver cells (AML-12 cells) in vitro and quantified various markers in response to exposure of the cells to environmental challenge in the presence and absence of DDA at low concentrations. Unless indicated otherwise, the DDA concentration in the in vitro experiments was 5 mcg per microliter. More specifically, the inventors measured p-H2AX protein levels as a marker for DNA damage, PGC-1α protein levels as a marker for mitochondrial biogenesis, NAMPT enzyme levels as a marker for potential for NAD+ production, and total antioxidant capacity as a marker of cellular health. In addition, the inventors also measured global SIRT activity as a gauge of activity for all SIRT enzymes, and in particular SIRT1 enzyme levels as markers for autophagy and various beneficial processes associated with a caloric restricted diet, and SIRT3 levels as markers for mitochondrial function and longevity.
In yet a further series of experiments, the inventors also sought to confirm whether or not DDDA would have a modulatory effect in endothelial cells using the same markers and experimental conditions as noted above.
Finally, the inventors also evaluated DNA damage in endothelial cells after oxidative insult by H2O2, and exemplary results are shown in FIG. 17. […] N=5-6 plates per treatment.

rat primary HSCs = experiment: HSCs apoptosis by flow cytometry using propidium iodide staining; format: cell-based; conditions: 1% (w/vol)
Description: A 10% (w/v) FFA-free BSA (Sigma) solution was prepared in ddH2O and maintained at 55° C. in a water bath. 10 mM FFA/1% BSA solution was obtained by complexing the appropriate amount of palmitate stock solution to 10% BSA at 55° C. for another 30 min. The above solution was then cooled to 25° C., filter sterilized and stored at −20° C. until use. Primary hepatocytes were grown in DMEM supplemented with palmitate (0.4 mM). After 24 h. CM was clarified by centrifugation at 6000 g to remove cell debris, sterile filtered with a 0.45 μm pore size membrane filter and stored in aliquots at −20° C. until use.
Hepatic Stellate cells: Primary hepatic stellate cells were isolated from Wistar rats as described previously (7). […] HSCs activation was assessed by flow cytometry by evaluating alpha-smooth muscle Actin (α-SMA) and Collagen type I alpha 1 (COLIA1) protein expression. α-SMA and COLIA1 antibodies were obtained from Thermo Fisher scientific (Waltham, MA). Flow cytometric analysis was conducted with CytoFlex (Beckman Coulter, Brea, CA) and data analyzed with Kaluza software (Beckman Coulter, Brea, CA). […]
Subsequently, protein expression of two established markers of HSCs activation, namely collagen type 1 (COLA1A) and alpha-smooth muscle actin (αSMA), was determined by flow cytometry analysis. […] Next, the inventors analyzed the effect of DODA on HSCs apoptosis. […]

SMILES: O=C(O)CCCCCCCCCCC(=O)O [DDDA, dodecanedioic acid]
- DNA damage [1]: numerically decreased DNA damage
- HSCs apoptosis (rat primary HSCs; CM from palmitate-treated hepatocytes, propidium iodide staining): induces HSCs apoptosis
- cell death (propidium iodide staining, flow cytometry) (rat primary HSCs; rat primary HSCs, CM from steatotic hepatocytes, without compound 8.39%): 16.16%
